In patent publication US11666558B2, “Methods of treating intraocular pressure with activators of Tie-2” (EyePoint Pharmaceuticals, Inc., priority 2015, dated 2023):
Each block holds one molecule with its values, some of them ahead of it.

Assays:
HPTP-β = HPTP-β (Homo sapiens (Human), UniProt P23467); assay: HPTP-β inhibitory activity (IC50); assay type: biochemical
intraocular pressure = assay: Intraocular pressure, Compound 1 with sham or ranibizumab, Months 1-3 (FIG. 2, TABLE 1); assay type: in vivo
Experimental: The difference in IOP was determined relative to a pre-treatment baseline (Base) at months 1, 2, and 3 (M1-M3). Intraocular pressure was determined in the study eye in millimeters of mercury (mmHg). […] The difference in IOP was determined relative to a pre-treatment Baseline at Months 1, 2 and 3. Intraocularpressure was determined in the study eye/fellow eye in mmHg.

HPTP-β, sequence (P23467 23-1997): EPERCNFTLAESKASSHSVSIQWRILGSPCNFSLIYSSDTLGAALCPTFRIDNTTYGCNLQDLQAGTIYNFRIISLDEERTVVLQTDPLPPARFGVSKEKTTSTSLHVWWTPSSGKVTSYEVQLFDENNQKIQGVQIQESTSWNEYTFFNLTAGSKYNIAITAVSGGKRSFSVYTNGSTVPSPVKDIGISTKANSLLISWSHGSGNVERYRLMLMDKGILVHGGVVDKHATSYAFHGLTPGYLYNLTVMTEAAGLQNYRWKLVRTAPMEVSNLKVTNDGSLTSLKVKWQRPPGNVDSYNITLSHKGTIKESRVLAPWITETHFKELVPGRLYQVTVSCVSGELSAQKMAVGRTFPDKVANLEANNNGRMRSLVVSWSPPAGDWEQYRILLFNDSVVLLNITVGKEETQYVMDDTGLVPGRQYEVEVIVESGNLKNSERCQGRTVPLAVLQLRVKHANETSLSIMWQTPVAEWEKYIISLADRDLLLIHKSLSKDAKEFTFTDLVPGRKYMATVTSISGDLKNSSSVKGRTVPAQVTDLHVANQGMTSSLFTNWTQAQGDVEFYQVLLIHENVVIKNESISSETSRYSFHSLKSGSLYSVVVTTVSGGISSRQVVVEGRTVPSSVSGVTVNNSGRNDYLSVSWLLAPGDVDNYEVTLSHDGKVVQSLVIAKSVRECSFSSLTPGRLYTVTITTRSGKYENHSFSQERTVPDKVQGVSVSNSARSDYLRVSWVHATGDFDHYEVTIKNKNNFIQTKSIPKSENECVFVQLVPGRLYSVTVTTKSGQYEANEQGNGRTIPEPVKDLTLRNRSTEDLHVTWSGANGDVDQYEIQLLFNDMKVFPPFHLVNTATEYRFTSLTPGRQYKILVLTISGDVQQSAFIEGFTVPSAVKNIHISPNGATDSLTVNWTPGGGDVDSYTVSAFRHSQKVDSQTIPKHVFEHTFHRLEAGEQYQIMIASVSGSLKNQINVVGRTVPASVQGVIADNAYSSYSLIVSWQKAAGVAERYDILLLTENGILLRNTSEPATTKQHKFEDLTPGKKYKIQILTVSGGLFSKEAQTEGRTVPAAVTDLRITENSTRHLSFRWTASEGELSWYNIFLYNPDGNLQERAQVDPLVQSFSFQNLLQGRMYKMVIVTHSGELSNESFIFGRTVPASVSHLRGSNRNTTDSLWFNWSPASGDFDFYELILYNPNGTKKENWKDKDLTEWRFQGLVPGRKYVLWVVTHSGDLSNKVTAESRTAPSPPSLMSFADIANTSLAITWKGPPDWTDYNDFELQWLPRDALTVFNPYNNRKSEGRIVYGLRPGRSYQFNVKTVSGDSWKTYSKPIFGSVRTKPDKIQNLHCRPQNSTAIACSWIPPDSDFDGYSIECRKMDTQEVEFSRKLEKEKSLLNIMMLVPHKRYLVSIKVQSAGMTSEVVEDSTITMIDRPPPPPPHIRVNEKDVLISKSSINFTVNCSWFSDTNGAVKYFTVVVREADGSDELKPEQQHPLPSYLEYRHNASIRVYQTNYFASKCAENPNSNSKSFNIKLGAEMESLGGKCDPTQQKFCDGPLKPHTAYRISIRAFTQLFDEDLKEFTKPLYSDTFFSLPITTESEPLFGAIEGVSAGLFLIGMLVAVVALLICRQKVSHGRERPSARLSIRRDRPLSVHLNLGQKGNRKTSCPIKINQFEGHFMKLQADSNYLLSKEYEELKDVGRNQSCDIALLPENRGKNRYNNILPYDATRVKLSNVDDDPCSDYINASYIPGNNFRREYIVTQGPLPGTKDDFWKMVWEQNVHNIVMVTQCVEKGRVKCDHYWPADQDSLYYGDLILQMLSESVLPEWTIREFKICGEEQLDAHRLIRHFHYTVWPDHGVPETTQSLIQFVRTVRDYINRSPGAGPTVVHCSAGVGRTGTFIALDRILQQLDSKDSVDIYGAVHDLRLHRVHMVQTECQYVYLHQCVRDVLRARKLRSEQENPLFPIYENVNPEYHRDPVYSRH

Molecule: CCc1csc([C@H](Cc2ccc(NS(=O)(=O)O)cc2)NC(=O)[C@H](CNC(=O)OC(C)(C)C)Cc2ccccc2)n1 [AA3]
IC50 (HPTP-β): 31 nM

Molecule: ranibizumab [placebo + RBZ]
IOP, fellow eye (intraocular pressure; Baseline (pre-treatment)): 15.8 mmHg
IOP, study eye (intraocular pressure; Baseline (pre-treatment)): 15.2 mmHg
IOP, fellow eye (intraocular pressure; Month 1): 15.5 mmHg
IOP, study eye (intraocular pressure; Month 1): 15.0 mmHg
IOP, fellow eye (intraocular pressure; Month 2): 15.5 mmHg
IOP, study eye (intraocular pressure; Month 2): 15.0 mmHg
IOP, fellow eye (intraocular pressure; Month 3): 15.7 mmHg
IOP, study eye (intraocular pressure; Month 3): 15.3 mmHg

Second part, the molecule after the results:

IC50 (HPTP-β): 555 nM
Molecule: CC(C)(C)OC(=O)N[C@@H](Cc1ccc(NS(=O)(=O)O)cc1)c1csc(OC(=O)C(C)(C)C)n1 [AA71]

IC50 (HPTP-β): < 0.002 nM
Molecule: COC(=O)N[C@@H](Cc1ccccc1)C(=O)N[C@@H](Cc1ccc(NS(=O)(=O)O)cc1)c1nc(-c2ccccc2)cs1 [AA21]

IC50 (HPTP-β): 6 nM
Molecule: CCc1csc([C@H](Cc2ccc(NS(=O)(=O)O)cc2)NC(=O)[C@H](CC(C)C)NC(=O)OC(C)(C)C)n1 [AA42]
